{"source": "patent US20220175809A1", "about": "“TREATMENT AND PREVENTION OF INFECTIONS BY HERPESVIRIDAE WITH DELPHINIDIN-3-GLUCOSIDE” (Evonik Operations GmbH, priority 2019, published 2022)", "key": {"HSV-1": {"system": "HSV-1", "assay": "Anti-viral assay, GFP-encoding HSV-1 infection of BHK cells (infected cells counted)", "format": "cell-based, herpes simplex virus 1", "settings": "BHK cells treated with anthocyanins, then GFP-encoding HSV-1", "description": "(§1) BHK cells were incubated with decreasing concentration of the solubilized test compounds for approx. 1 h. All concentrations were analyzed by six independent replicates on a black 96 well plate (PerkinElmer). Cells were infected with GFP-encoding wildtype HSV-1 virus and incubated for two days. Two days after infection, HSV-1-infected cells and GFP expressing cells were directly counted using the PerkinElmer Ensight system with optical cell culture plates. The instrument was controlled by manual counting. Anti-viral assays for HHV8 were performed accordingly. To not only analyze the virus entry and early phase of virus replication of infection but also later phases of viral replication, the test assay was adjusted accordingly. BHK cells were incubated with test compounds and subsequently infected with HSV-1. Two days after infection supernatants were collected, centrifuged to remove detached cells and used to infect BHK cells. After two additional days infected cells were quantified using the Ensight system.\nThe cells were subsequently infected with GFP-encoding HSV at a multiplicity of infection of 2.5, and infected GFP-expressing cells were counted one day after infection using the PerkinElmer Ensight system. […] Thus, the sugar is not required as potential co-factor for drug uptake."}, "HHV-8": {"system": "HHV-8", "assay": "Anti-viral assay, GFP-encoding HHV-8 infection (infected cells counted)", "format": "cell-based, Herpes virus 8", "settings": "materials adjusted to same anthocyanin levels, counted two days after infection", "description": "as §1\nThe concentrations of materials were again adjusted to the same levels of anthocyanins. No treatment or only maltodextrin served as controls. The cells were subsequently infected with GFP-encoding HHV-8, and infected GFP-expressing cells were counted two days after infection using the PerkinElmer Ensight system. […] The analysis of berry extract analogue without maltodextrin and the maltodextrin control confirmed again that the sugar moiety is not required as potential co-factor for drug uptake."}}}
{"smiles": "OC[C@H]1OC(Oc2cc3c(O)cc(O)cc3[o+]c2-c2cc(O)c(O)c(O)c2)[C@H](O)C(O)C1O", "note": "(stereo partly shown) [D3G, Delphinidin-3-glucoside]", "values": [{"measurement": "inhibition of HSV-1 (viral infectivity)", "setting": "HSV-1", "value": "decreased viral infectivity like Healthberry® 865"}, {"measurement": "suppression of HHV-8 viral infectivity", "setting": "HHV-8", "value": "identified as an active ingredient"}, {"measurement": "suppression of HHV-8 viral infectivity", "setting": "HHV-8; listed as D3G derived from red grape extract", "value": "reduced the number of infected cells significantly"}, {"measurement": "suppression of HHV-8 viral infectivity", "setting": "HHV-8; listed as D3G from Healthberry® 865", "value": "reduced the number of infected cells significantly"}]}
